Results published in patent publication US7772183B2 (Bristol-Myers Squibb Company, priority 2005, dated 2010).

Assays:
[1] = system: HCV replicon in HUH-7 cells; experiment: HCV replicon FRET assay; type: cell-based, Hepatitis C virus (strain 1b); details: Hepatitis C virus, Huh-7; HCV replicon, for compounds tested; read-out: EC50 Range
Excerpt: An HCV replicon whole cell system was established as described by Lohmann V, Komer F, Koch J, Herian U, Theilmann L, Bartenschlager R., Science 285(5424):110-3 (1999). This system enabled us to evaluate the effects of our HCV Protease compounds on HCV RNA replication. Briefly, using the HCV strain 1b sequence described in the Lohmann paper (Assession number: AJ238799), an HCV cDNA was synthesized by Operon Technologies, Inc. (Alameda, Calif.), and the full-length replicon was then assembled in plasmid pGem9zf(+) (Promega, Madison, Wis.) using standard molecular biology techniques. The replicon consists of (i) the HCV 5′ UTR fused to the first 12 amino acids of the capsid protein, (ii) the neomycin phosphotransferase gene (neo), (iii) the IRES from encephalomyocarditis virus (EMCV), and (iv) HCV NS3 to NS5B genes and the HCV 3′ UTR. Plasmid DNAs were linearized with Scal and RNA transcripts were synthesized in vitro using the T7 MegaScript transcription kit (Ambion, Austin, Tex.) according to manufacturer's directions. In vitro transcripts of the cDNA were transfected into the human hepatoma cell line, HUH-7. […] Resulting cell lines were characterized for positive and negative strand RNA production and protein production over time.
The HCV replicon FRET assay was developed to monitor the inhibitory effects of compounds described in the disclosure on HCV viral replication. HUH-7 cells, constitutively expressing the HCV replicon, were grown in Dulbecco's Modified Eagle Media (DMEM) (Gibco-BRL) containing 10% Fetal calf serum (FCS) (Sigma) and 1 mg/ml G418 (Gibco-BRL). Cells were seeded the night before (1.5×10^4 cells/well) in 96-well tissue-culture sterile plates. Compound and no compound controls were prepared in DMEM containing 4% FCS, 1:100 Penicillin/Streptomysin (Gibco-BRL), 1:100 L-glutamine and 5% DMSO in the dilution plate (0.5% DMSO final concentration in the assay). Compound/DMSO mixes were added to the cells and incubated for 4 days at 37° C. After 4 days, cells were first assessed for cytotoxicity using alamar Blue (Trek Diagnotstic Systems) for a CC50 reading. The toxicity of compound (CC50) was determined by adding 1/10th volume of alamar Blue to the media incubating the cells. After 4 hours, the fluorescence signal from each well was read, with an excitation wavelength at 530 nm and an emission wavelength of 580 nm, using the Cytofluor Series 4000 (Perspective Biosystems). Plates were then rinsed thoroughly with Phosphate-Buffered Saline (PBS) (3 times 150 μl). The cells were lysed with 25 μl of a lysis assay reagent containing an HCV protease substrate (5× cell Luciferase cell culture lysis reagent (Promega #E153A) diluted to 1× with distilled water, NaCl added to 150 mM final, the FRET peptide substrate (as described for the enzyme assay above) diluted to 10 μM final from a 2 mM stock in 100% DMSO. […]. The plate was then placed into the Cytofluor 4000 instrument which had been set to 340 nm excitation/490 nm emission, automatic mode for 21 cycles and the plate read in a kinetic mode. EC50 determinations were carried out as described for the IC50 determinations.

[2] = biological target: T1, HCV NS3/4A protease complex, BMS strain (UniProt P27958, species not given/STRAIN_BMS); experiment: FRET peptide assay to monitor HCV NS3/4A proteolytic activity (BMS strain); type: biochemical, Hepatitis C virus (genotype 1a); details: NS3/4A BMS strain; read-out: IC50 Range
T1 construct: said of H77 and J4L6S; fused on or other part: A three-lysine solubilising tail at the C-terminus of NS4A and a His tag (pET21b, Ni-NTA purification)
T1 sequence (P27958 1027-1657, change not shown, one chain of several): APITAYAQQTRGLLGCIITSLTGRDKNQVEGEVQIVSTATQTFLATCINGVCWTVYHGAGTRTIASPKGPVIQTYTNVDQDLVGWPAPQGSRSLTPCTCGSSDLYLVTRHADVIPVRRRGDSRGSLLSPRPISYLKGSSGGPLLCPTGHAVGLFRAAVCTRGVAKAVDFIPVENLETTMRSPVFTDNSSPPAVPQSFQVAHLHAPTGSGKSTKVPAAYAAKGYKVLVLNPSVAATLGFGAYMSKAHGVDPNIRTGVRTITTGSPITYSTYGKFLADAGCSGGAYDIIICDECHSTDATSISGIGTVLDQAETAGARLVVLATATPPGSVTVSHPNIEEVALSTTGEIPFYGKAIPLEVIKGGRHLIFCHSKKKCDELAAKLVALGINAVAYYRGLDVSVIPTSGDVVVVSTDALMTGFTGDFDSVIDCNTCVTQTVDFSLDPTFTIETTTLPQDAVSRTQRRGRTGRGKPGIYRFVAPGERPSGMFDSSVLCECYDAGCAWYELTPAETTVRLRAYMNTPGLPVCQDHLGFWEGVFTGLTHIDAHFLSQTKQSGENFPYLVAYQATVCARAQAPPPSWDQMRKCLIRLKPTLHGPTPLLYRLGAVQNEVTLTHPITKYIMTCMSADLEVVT
Excerpt: HCV NS3 protease complexes, derived from the BMS strain, H77 strain or J4L6S strain, were generated, as described below. These purified recombinant proteins were generated for use in a homogeneous assay (see below) to provide an indication of how effective compounds of the present disclosure would be in inhibiting HCV NS3 proteolytic activity.
Serum from an HCV-infected patient was obtained from Dr. T. Wright, San Francisco Hospital. An engineered full-length cDNA (compliment deoxyribonucleic acid) template of the HCV genome (BMS strain) was constructed from DNA fragments obtained by reverse transcription-PCR (RT-PCR) of serum RNA (ribonucleic acid) and using primers selected on the basis of homology between other genotype 1a strains. From the determination of the entire genome sequence, a genotype 1a was assigned to the HCV isolate according to the classification of Simmonds et al. (See P Simmonds, K A Rose, S Graham, S W Chan, F McOmish, B C Dow, E A Follett, P L Yap and H Marsden, J. Clin. Microbiol., 31(6), 1493-1503 (1993)). […] The infectious clones, H77 (1a genotype) and J4L6S (1b genotype) were obtained from R. Purcell (NIH) and the sequences are published in Genbank (AAB67036, see Yanagi, M., Purcell, R. H., Emerson, S. U. and Bukh, J. Proc. Natl. Acad. Sci. U.S.A. 94(16), 8738-8743 (1997); AF054247, see Yanagi, M., St Claire, M., Shapiro, M., Emerson, S. U., Purcell, R. H. and Bukh, J, Virology 244 (1), 161-172. (1998)).
The H77 and J4L6S strains were used for production of recombinant NS3/4A protease complexes. DNA encoding the recombinant HCV NS3/4A protease complex (amino acids 1027 to 1711) for these strains were manipulated as described by P. Gallinari et al. (see Gallinari P, Paolini C, Brennan D, Nardi C, Steinkuhler C, De Francesco R. Biochemistry. 38(17):5620-32, (1999)). Briefly, a three-lysine solubilizing tail was added at the 3′-end of the NS4A coding region. The cysteine in the P1 position of the NS4A-NS4B cleavage site (amino acid 1711) was changed to a glycine to avoid the proteolytic cleavage of the lysine tag. Furthermore, a cysteine to serine mutation was introduced by PCR at amino acid position 1454 to prevent the autolytic cleavage in the NS3 helicase domain. The variant DNA fragment was cloned in the pET21b bacterial expression vector (Novagen) and the NS3/4A complex was expressed in Escherichia coli strain BL21 (DE3) (Invitrogen) following the protocol described by P. Gallinari et al. (see Gallinari P, Brennan D, Nardi C, Brunetti M, Tomei L, Steinkuhler C, De Francesco R., J Virol. 72(8):6758-69 (1998)) with modifications. Briefly, the NS3/4A protease complex expression was induced with 0.5 mM Isopropyl β-D-1-thiogalactopyranoside (IPTG) for 22 hours (h) at 20° C. A typical fermentation (1 Liter (L)) yielded approximately 10 grams (g) of wet cell paste. The cells were resuspended in lysis buffer (10 mL/g) consisting of 25 mM N-(2-Hydroxyethyl)Piperazine-N′-(2-Ethane Sulfonic acid) (HEPES), pH 7.5, 20% glycerol, 500 mM Sodium Chloride (NaCl), 0.5% Triton X-100, 1 microgram/milliliter (“μg/mL”) lysozyme, 5 mM Magnesium Chloride (MgCl2), 1 μg/ml Dnasel, 5 mM β-Mercaptoethanol (βME), Protease inhibitor-Ethylenediamine Tetraacetic acid (EDTA) free (Roche), homogenized and incubated for 20 minutes (min) at 4° C. The homogenate was sonicated and clarified by ultra-centrifugation at 235000 g for 1 h at 4° C. Imidazole was added to the supernatant to a final concentration of 15 mM and the pH adjusted to 8.0. The crude protein extract was loaded on a Nickel-Nitrilotriacetic acid (Ni-NTA) column pre-equilibrated with buffer B (25 mM HEPES, pH 8.0, 20% glycerol, 500 mM NaCl, 0.5% Triton X-100, 15 mM imidazole, 5 mM βME). The sample was loaded at a flow rate of 1 mL/min. The column was washed with 15 column volumes of buffer C (same as buffer B except with 0.2% Triton X-100). The protein was eluted with 5 column volumes of buffer D (same as buffer C except with 200 mM Imidazole). […]

Row | SMILES | EC50 [1] [µM] | melting point [°C] | IC50 [2] [µM]
1 | CC(C)(C)OC(=O)N[C@H]1COCCC/C=C\[C@@H]2C[C@@]2(C(=O)NS(=O)(=O)C2CC2)NC(=O)[C@@H]2C[C@@H](OC(=O)c3ccccc3)CN2C1=O [Compound 12, 18-benzoyloxy-14-tert-butoxycarbonylamino-4-cyclopropylsulfonylaminocarbonyl-2,15-dioxo-3,16-diaza-12-oxatricyclo-[14.3.0.0^4,6]-nonadec-7-ene] | 0.1 to 1 | 135 to 137 | < 0.1
2 | CC(C)(C)OC(=O)N[C@H]1COCCC/C=C\[C@@H]2C[C@@]2(C(=O)NS(=O)(=O)C2CC2)NC(=O)[C@@H]2C[C@@H](OC(=O)c3cccc(Oc4ccccc4)c3)CN2C1=O [Compound 13, 18-(3-phenoxybenzoyloxy)-14-tert-butoxycarbonylamino-4-cyclopropylsulfonylaminocarbonyl-2,15-dioxo-3,16-diaza-12-oxatricyclo-[14.3.0.0^4,6]-nonadec-7-ene] | 0.1 to 1 | 123 to 125 | < 0.1
3 | CC(C)(C)OC(=O)N[C@H]1COCCC/C=C\[C@@H]2C[C@@]2(C(=O)NS(=O)(=O)C2CC2)NC(=O)[C@@H]2C[C@@H](OC(=O)c3ccc(Oc4ccccc4)cc3)CN2C1=O [Compound 14, 18-(4-phenoxybenzoyloxy)-14-tert-butoxycarbonylamino-4-cyclopropylsulfonylaminocarbonyl-2,15-dioxo-3,16-diaza-12-oxatricyclo-[14.3.0.0^4,6]-nonadec-7-ene] | 0.1 to 1 | 207 to 209 | 0.1 to 1
4 | CC(C)(C)OC(=O)N[C@H]1CCCCC/C=C\[C@@H]2C[C@@]2(C(=O)NS(=O)(=O)C2CC2)NC(=O)[C@@H]2C[C@@H](OC(=O)c3ccccc3)CN2C1=O [Compound 15, 18-benzoyloxy-14-tert-butoxycarbonylamino-4-cyclopropylsulfonylaminocarbonyl-2,15-dioxo-3,16-diazatricyclo-[14.3.0.0^4,6]-nonadec-7-ene] | < 0.1 | 140 to 142 | < 0.1
5 | CC(C)(C)OC(=O)N[C@H]1CCCCC/C=C\[C@@H]2C[C@@]2(C(=O)NS(=O)(=O)C2CC2)NC(=O)[C@@H]2C[C@@H](OC(=O)c3ccc4c(c3)OCO4)CN2C1=O [Compound 16, 18-(3,4-methylenedioxybenzoyloxy)-14-tert-butoxycarbonylamino-4-cyclopropylsulfonylaminocarbonyl-2,15-dioxo-3,16-diazatricyclo-[14.3.0.0^4,6]-nonadec-7-ene] | < 0.1 | 153 to 155 | < 0.1
6 | CC(C)(C)OC(=O)N[C@H]1CCCCC/C=C\[C@@H]2C[C@@]2(C(=O)NS(=O)(=O)C2CC2)NC(=O)[C@@H]2C[C@@H](OC(=O)c3cccc(OC(F)(F)F)c3)CN2C1=O [Compound 17, 18-[(3-trifluoromethoxy)benzoyloxy]-14-tert-butoxycarbonylamino-4-cyclopropylsulfonylaminocarbonyl-2,15-dioxo-3,16-diazatricyclo-[14.3.0.0^4,6]-nonadec-7-ene] | < 0.1 | 132 to 134 | < 0.1
7 | CC(C)(C)OC(=O)N[C@H]1CCCCC/C=C\[C@@H]2C[C@@]2(C(=O)NS(=O)(=O)C2CC2)NC(=O)[C@@H]2C[C@@H](OC(=O)c3ccc4ccccc4c3)CN2C1=O [Compound 18, 18-(2-naphthoyloxy)-14-tert-butoxycarbonylamino-4-cyclopropylsulfonylaminocarbonyl-2,15-dioxo-3,16-diazatricyclo-[14.3.0.0^4,6]-nonadec-7-ene] | < 0.1 | 156 to 158 | < 0.1
8 | CC(C)(C)OC(=O)N[C@H]1CCCCC/C=C\[C@@H]2C[C@@]2(C(=O)NS(=O)(=O)C2CC2)NC(=O)[C@@H]2C[C@@H](OC(=O)c3ccc(-c4ccccc4)cc3)CN2C1=O [Compound 19, 18-(4-biphenylcarbonyloxy)-14-tert-butoxycarbonylamino-4-cyclopropylsulfonylaminocarbonyl-2,15-dioxo-3,16-diazatricyclo-[14.3.0.0^4,6]-nonadec-7-ene] | < 0.1 | 162 to 164 | < 0.1
9 | COc1ccc(C(=O)O[C@@H]2C[C@H]3C(=O)N[C@]4(C(=O)NS(=O)(=O)C5CC5)C[C@H]4/C=C\CCCCC[C@H](NC(=O)OC(C)(C)C)C(=O)N3C2)cc1 [Compound 20, 18-(4-methoxybenzoyloxy)-14-tert-butoxycarbonylamino-4-cyclopropylsulfonylaminocarbonyl-2,15-dioxo-3,16-diazatricyclo-[14.3.0.0^4,6]-nonadec-7-ene] | < 0.1 | 151 to 153 | < 0.1
